In patent publication US20110152379A1, “COMPOSITION FOR CONTROL OF AGING AND/OR EXTENSION OF LIFE, CONTAINING DAPSONE AS ACTIVE INGREDIENT” (priority 2008, published 2011):

Key:
C. elegans = test: Chemiluminescent of lipofuscin in small intestine of worm; format: in vivo; conditions: fed on DDS during the whole life and after the adolescence; FIG. 5
Method: The chemiluminescent of C. elegans was taken a photograph by exposing for 800 msec through 525 nm Band-Pass Filter. The size of each photograph was only adjusted by using Adobe Photoshop CS2. For measuring the amount of Chemiluminescent in a small intestine, the brightness of pixels in a certain region was measured by Image J 1.35. At least 30 of C. elegans were measured every day and then the mean and standard error were calculated.

mitochondria complex V = test: Western blot of mitochondria complex V amount in C. elegans; format: in vivo; conditions: C. elegans treated with DDS; FIG. 8
Method: C. elegans was isolated and collected by using dense sucrose (Centrifugation) and was washed with S buffer solution to remove a contaminant. In order to isolate mitochondria, C. elegans was twice homogenized in MSM buffer solution (220 mM mannitol, 10 mM sucrose, 5 mM MOPS, pH 7.4, with KOH) containing 0.2% of BSA at 5000 rpm for 20 seconds by using Precellys24 Homogenizer (Medinova) and Glass bead. The residue and non-homogenized C. elegans were removed fro the homogenized C. elegans through a centrifuge (380 g, 5 min) by using MSM buffer solution. The precipitate of homogenous substance that was centrifuged at 4500 g for 5 minutes, i.e., mitochondria were prepared. The rest was prepared as a part of cytoplasm. […] The quantitation of protein was performed by using BCA protein detection kit (Pierce).
The lysates of C. elegans grown under appropriate condition (containing PABA alone or PABA and dapsone) were prepared. […] After transferring to a nitrocellulose, they were analyzed by using Western Blot using MS601 (subunit α of F1 of ATP synthase, Oxphos Complexes detection kit, Mitoscience, 1:1,000) and α-Tubulin (Sigma; 1:2,000) antibody. The result was detected by using ECL (Pierce) and a horseradish peroxidase-conjugated secondary antibody.

ceDuox1 = test: RT-PCR of ceDuox1 mRNA in worms; format: in vivo, C. elegans; conditions: worms treated with DDS; FIG. 13
Method: Total RNA was isolated by using TRI reagent available from MRC Company and first cDNA strain was synthesized by using Oligo-dT and Superscript II Reverse Transcriptase (available from Invitrogen Company). The gene amplification (PCR) was performed by using PCR Master Mix (Genenmed) and as the base sequence of the primer, ceDuox1; 5′-[…]-3′ (Forward Primer) and 5′-[…]-3′ (Reverse Primer), actin 5′-[…]-3′ (Forward Primer) and 5′-[…]-3′ (Reverse Primer) were used.

human diploid fibroblast = test: Survival rate of human diploid fibroblast treated with PQ (CCK-8); conditions: DDS pretreatment (0.1, 1, 5, 20 and 50 uM) 3 hours, then 1 mM PQ 48 hours; FIG. 23
Method: The above cell was cultured by adding Cell Counting Kit-8 for 48 hours and then the survival ability of cell was measured. In addition, DPI (5 uM) was pretreated for 30 minutes and NAC (2 mM) was pretreated for 3 hours, and then 1 mM of PQ was treated as a positive control.
The evaluation of survival rate of cell was performed by using Counting Kit (CCK-8) from Dojindo Laboratory Company (Japan). The human diploid fibroblast was cultured at 96-well plate for 24 hours before treating. […] The absorbance was measured at 450 nm.

[1] = system: mitochondria superoxide anion; test: Superoxide anion in mitochondria, MitoSOX Red; format: cell-based; conditions: human diploid fibroblast; 1 mM PQ 30 minutes; FIG. 24B
Method: The cell was treated with 1 mM of PQ for 30 minutes, and then was cultured at 37° C. for 15 minutes after adding oxidant-sensitive fluorescent dyes (A) DHE (5 uM, cytosol specific) and (B) MitoSOX (5 uM, mitochondria specific), respectively. For identifying the change of fluorescence, the excitation and emission wavelength of DHE were measured at 515 and 590 nm and MitoSOX was measured at 520 and 580 nm by using a multiwell plate reader. The results were indicated by calculating the results of three experiments as a control rate (%). The statistical significant was expressed as *, # p<0.005; ** p<0.05.
Mitochondria superoxide anion was measured by using the fluorescence material, i.e., MitoSOX Red. […] The cell was twice washed with DPBS and the fluorescence was immediately measured at excitation wavelength 515 nm and emission wavelength 590 nm by using CEFS [Cary Eclipse fluorescence spectrophotometer (Varian, Calif., USA)] machine.

mitochondria = test: Mitochondria structure staining with MitoTracker Red; format: cell-based, human; conditions: pretreated with DDS or DPI, then 1 mM PQ 24 hours; FIG. 30
Method: The first photograph indicates the stained mitochondria of the non-treated human diploid fibroblast as a control, the second photograph indicates the stained mitochondria of the PQ-treated human diploid fibroblast, the third photograph indicates the stained mitochondria of the human diploid fibroblast that was pretreated with DDS and then was treated with PQ, and the final photograph indicates the stained mitochondria of the human diploid fibroblast that was treated with DPI and PQ together (by using Confocal process). The values of (A, B, C and D: ×4000) is means±SEM (n=3), # is p<0.005 relative CC; and * is p<0.005 relative C.
The human diploid fibroblasts were cultured at 24-well plate. After the above experiment materials, i.e., the human diploid fibroblasts, were pretreated and then were treated with PQ for 24 hours, the above cells were treated with MitoTracker Red CMXRos (50 nM), which is a staining material for mitochondria, at 37° C. for 30 minutes. The dye is a marker of function for marking mitochondria through marking a transmembrane potential of mitochondria in a cell. After culturing, the cells were washed with PBS and then fixed with 4% of paraformaldehyde at 4° C. for overnight. […] After washing, the cells were covered with a cover glass and visualized through a fluorescence microscope.

Nc1ccc(S(=O)(=O)c2ccc(N)cc2)cc1 [DDS, 4,4′-diaminodiphenylsulfone]
generation of lipofuscin (C. elegans): delayed for several days | amount of complex V (mitochondria complex V): significantly decreased | amounts of mRNA of C. elegans NOX, ceDuox (ceDuox1): significantly decreased | viability of human diploid fibroblast compared with the cell having the cytotoxic of PQ (human diploid fibroblast): improved | production of superoxide anion in the mitochondria [1]: suppresses | shape of mitochondria after PQ (MitoTracker) (mitochondria): recovered, partially
